US20230098646A1, “NEUROMODULATION DEVICES AND RELATED METHODS” (Massachusetts Institute of Technology, priority 2021, published 2023)
Where a SMILES comes first, the peptide text is derived from it. The star is where a group is joined. Cbz = O=C(OCc1ccccc1)*

Columns and labels:
[1] = test system: C2C12 cells; assay: Extract exposure test (ISO), cell viability by ATP quantitation (CellTiter-Glo); format: cell-based; conditions: 40 um MG-132, positive control, vs negative control (p<0.05)
Procedure: An extract exposure test following ISO norms was performed to evaluate the toxicity of the neuroprosthesis material. 0.2 gm of material were added to 1 mL of DMEM culture medium and stirred at 37° C. for 24 hours or 7 days to create the extract samples. 100 uL of fetal bovine serum were added to 900 uL aliquots of the samples and used to treat C2C12 cells plated in a 96 well plate in triplicate. A negative control of untreated media and positive control of media containing 40 um MG-132, a small molecule proteasome inhibitor, were also performed. At 24 and 72 hours, cell viability was measured through quantitation of ATP using CellTiter-Glo (Promega) using a Tecan M1000Pro.

[2] = test system: lower esophageal sphincter; assay: Glucagon infusion through the neuroprosthesis microfluidic channel into the lower esophageal sphincter, intraluminal manometry; format: in vivo, swine
Procedure: The neuroprosthesis' distal tip was implanted in the lower esophageal sphincter and glucagon was infused through the microfluidic channel. This chemical stimulation yielded relaxation of the sphincter within 10-20 s. […] Muscle tone returned within 1.5 minutes whereupon repeated infusions led to relaxation. Injection of saline produced no measurable effect and served as negative a control.
Following validation of the safety, efficacy, and biocompatibility, the prosthesis was implanted Yorkshire swine (n=2, 94 kg & 70 kg). The optimized electrical stimulation parameters were programmed into the controller. A pump primed the microfluidic channel and injected 5mg/mL glucagon per neurochemical stimulus.
To characterize and validate the neuroprosthesis' ability to sense and create artificial peristalsis, a fluoroscopic pellet study was conducted. Barium sulfate (Bracco E-Z-HD Barium Sulfate for Suspension (98% w/w), Patterson Veterinary) was mixed with a sodium alginate solution (Sigma) in a 50:50 volume by weight ratio. After 10 minutes of sonication at 30 deg C., the suspension was pipetted into a custom silicone mold sized for a triple zero capsule. After 24 hours, these pellets were hydrated with a 2M CaCl2 solution for at least 2 hours and rinsed with PBS for 72 hours. They were then placed in the esophagus using the endoscope. Stimulation and sensing were performed by the neuroprosthesis and the pellet was radiographically visualized using fluoroscopy. Further, intraluminal manometry studies were performed (n=4, swine) to characterize changes in esophageal reflexes and pressures following tool-based tissue manipulation and neuroprosthesis implantation as well as capture artificial peristalsis created by the neuroprosthesis. An intraluminal manometer (Endoflip, Medtronic) was inserted into the middle and lower esophagus using an overtube to profile distensibility, pressure, pattern of motility and minimal diameter of the esophagus. […] Electromyography was recorded from the electrodes during stimulation and rest periods. […]

Row | Compound | cell viability [1] | time to relaxation of the sphincter ([2]; after glucagon infusion through microfluidic channel, distal tip in lower esophageal sphincter) [s] | time until muscle tone returned ([2]; after glucagon infusion, repeated infusions again led to relaxation) [min] | relaxation of the LES on glucagon infusion ([2]; microfluidic infusion by the neuroprosthesis, 5mg/mL glucagon per stimulus, tonic LES at rest)
1 | CC(C)C[C@@H](C=O)NC(=O)[C@H](CC(C)C)NC(=O)[C@H](CC(C)C)NC(=O)OCc1ccccc1 [MG-132] (Cbz-Leu-Leu-Leu-aldehyde) | significantly decreased cell viability | – | – | –
2 | glucagon | – | 10 to 20 | ≤ 1.5 | yielded relaxation of this LES
